“And” between values parts separate entries of the source, which are not always exact repeats. Identical values can stand only once. Counter-ions that a name gives are not always drawn.
Key:
OAT3 = molecular target: T1, OAT3 (Homo sapiens, UniProt Q8TCC7); test: Substrate of OAT3, uptake in HEK293 cells; settings: probe substrate 1 μM
T1 sequence (Q8TCC7 1-542): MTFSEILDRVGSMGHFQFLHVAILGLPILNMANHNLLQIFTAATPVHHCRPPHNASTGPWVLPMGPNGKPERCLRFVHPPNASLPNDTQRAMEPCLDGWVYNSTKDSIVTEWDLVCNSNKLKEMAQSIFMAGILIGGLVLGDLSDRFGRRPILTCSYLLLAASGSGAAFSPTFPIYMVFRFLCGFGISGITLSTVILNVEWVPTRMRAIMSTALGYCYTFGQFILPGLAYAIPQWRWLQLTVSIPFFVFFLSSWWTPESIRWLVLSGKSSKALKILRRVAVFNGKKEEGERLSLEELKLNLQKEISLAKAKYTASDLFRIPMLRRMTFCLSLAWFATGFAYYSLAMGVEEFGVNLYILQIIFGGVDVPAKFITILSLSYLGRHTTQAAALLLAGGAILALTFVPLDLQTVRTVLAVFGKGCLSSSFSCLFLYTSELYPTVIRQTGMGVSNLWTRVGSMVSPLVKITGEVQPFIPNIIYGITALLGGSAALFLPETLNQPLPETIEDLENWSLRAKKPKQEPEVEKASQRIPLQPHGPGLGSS
Excerpt: (§1) Vector-transfected HEK cells were used as a control.

OCT2 [1] = molecular target: T2, OCT2 (Homo sapiens, UniProt O15244); test: Substrate of OCT2, uptake in HEK293 cells; settings: probe substrate 1 μM
T2 sequence (O15244 1-555): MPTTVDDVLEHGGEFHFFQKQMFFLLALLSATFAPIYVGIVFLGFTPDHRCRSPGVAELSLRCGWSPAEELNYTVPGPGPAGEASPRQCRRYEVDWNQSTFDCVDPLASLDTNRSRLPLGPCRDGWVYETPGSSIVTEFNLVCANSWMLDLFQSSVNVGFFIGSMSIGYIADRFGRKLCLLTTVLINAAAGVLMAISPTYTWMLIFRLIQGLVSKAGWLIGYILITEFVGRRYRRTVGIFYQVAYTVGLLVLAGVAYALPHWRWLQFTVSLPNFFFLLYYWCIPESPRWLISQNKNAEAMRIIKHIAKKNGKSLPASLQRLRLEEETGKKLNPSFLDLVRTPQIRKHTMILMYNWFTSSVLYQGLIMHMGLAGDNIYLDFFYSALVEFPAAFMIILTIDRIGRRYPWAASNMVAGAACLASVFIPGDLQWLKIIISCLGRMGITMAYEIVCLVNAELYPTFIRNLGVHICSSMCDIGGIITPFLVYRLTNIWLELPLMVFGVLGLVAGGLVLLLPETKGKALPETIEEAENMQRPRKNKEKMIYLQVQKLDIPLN
Excerpt: as §1

OCT2 [2] = molecular target: T2, OCT2; test: OCT2 inhibition, MPP+ uptake in transfected HEK cells; settings: no inhibitor
CYP2B6 mRNA = CYP2B6 mRNA induction in human hepatocytes (qPCR); settings: phenobarbital 1,000 μM, flumazenil 10 μM
Procedure: Plateable and inducible cryopreserved human hepatocytes were thawed and isolated in human hepatocyte thawing medium.
All experiments were performed in triplicate.
After induction treatment, CYP mRNA expression was measured by qPCR. Total RNA was isolated from the treated cells using the RNeasy® mini kit (Qiagen, Valencia, CA, USA) and treated with RNase-free DNase (Qiagen) following the manufacturer's protocols. The concentration of RNA was determined using a Qubit® Fluorometer with a Qubit RNA HS assay kit (Invitrogen). cDNA was synthesized from up to […] of the total RNA harvested from the cells using a QuantiTect® RT kit (Qiagen). Analysis of CYP gene expression by qPCR (Table 3) was performed using the LightCycler® 480 II System (Roche Diagnostics Corporation, Indianapolis, IN, USA).
Relative mRNA was expressed as the fold-increase calculated from the normalized mRNA level (2^−ΔΔCt) relative to vehicle control. The percentage of mRNA fold-increase relative to positive control was calculated using the following equation:
% Induction relative to positive control=100×(mRNATA−mRNAvehicle)/(mRNApositive control−mRNAvehicle)

human hepatocytes = test: Cell viability after CYP induction treatment (MTS); settings: controls at induction concentrations
Procedure: Plateable and inducible cryopreserved human hepatocytes were thawed and isolated in human hepatocyte thawing medium. […] After attachment (4 hours), the medium was changed to fresh hepatocyte culture medium for overnight cell recovery. […] A positive control (100 μM chlorpromazine) was treated in parallel.
After the CYP induction treatment, the cells were used for cell viability assay. The viability of cells (expressed as the percentage of MTS absorbance relative to vehicle control) was measured as described herein.

OATP1B1 = OATP1B1 (Homo sapiens, UniProt Q9Y6L6); test: OATP1B1 inhibition, atorvastatin uptake in transfected HEK cells
OATP1B1, sequence (Q9Y6L6 whole entry): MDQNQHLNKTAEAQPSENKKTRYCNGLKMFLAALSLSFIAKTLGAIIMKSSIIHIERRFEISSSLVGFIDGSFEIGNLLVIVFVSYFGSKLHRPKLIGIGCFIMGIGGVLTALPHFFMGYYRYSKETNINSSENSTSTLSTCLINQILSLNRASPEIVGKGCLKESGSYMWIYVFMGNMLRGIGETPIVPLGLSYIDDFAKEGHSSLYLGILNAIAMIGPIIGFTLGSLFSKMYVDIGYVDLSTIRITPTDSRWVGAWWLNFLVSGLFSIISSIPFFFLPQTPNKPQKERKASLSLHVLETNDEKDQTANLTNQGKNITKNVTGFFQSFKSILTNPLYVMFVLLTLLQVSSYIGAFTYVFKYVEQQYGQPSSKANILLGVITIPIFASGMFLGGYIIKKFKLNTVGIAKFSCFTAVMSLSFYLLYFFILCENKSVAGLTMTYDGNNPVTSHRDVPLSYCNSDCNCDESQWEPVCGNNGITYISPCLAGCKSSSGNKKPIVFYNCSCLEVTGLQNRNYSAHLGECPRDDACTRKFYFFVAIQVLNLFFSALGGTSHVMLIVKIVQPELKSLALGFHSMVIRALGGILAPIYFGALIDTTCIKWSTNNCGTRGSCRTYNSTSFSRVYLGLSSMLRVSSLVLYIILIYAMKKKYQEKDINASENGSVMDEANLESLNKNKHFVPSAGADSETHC

OATP1B3 = OATP1B3 (Homo sapiens, UniProt Q9NPD5); test: OATP1B3 inhibition, atorvastatin uptake in transfected HEK cells; settings: for Influx Rate of […] Atorvastatin (5 min): OATP1B3-HEK Cells
OATP1B3, sequence (Q9NPD5 whole entry): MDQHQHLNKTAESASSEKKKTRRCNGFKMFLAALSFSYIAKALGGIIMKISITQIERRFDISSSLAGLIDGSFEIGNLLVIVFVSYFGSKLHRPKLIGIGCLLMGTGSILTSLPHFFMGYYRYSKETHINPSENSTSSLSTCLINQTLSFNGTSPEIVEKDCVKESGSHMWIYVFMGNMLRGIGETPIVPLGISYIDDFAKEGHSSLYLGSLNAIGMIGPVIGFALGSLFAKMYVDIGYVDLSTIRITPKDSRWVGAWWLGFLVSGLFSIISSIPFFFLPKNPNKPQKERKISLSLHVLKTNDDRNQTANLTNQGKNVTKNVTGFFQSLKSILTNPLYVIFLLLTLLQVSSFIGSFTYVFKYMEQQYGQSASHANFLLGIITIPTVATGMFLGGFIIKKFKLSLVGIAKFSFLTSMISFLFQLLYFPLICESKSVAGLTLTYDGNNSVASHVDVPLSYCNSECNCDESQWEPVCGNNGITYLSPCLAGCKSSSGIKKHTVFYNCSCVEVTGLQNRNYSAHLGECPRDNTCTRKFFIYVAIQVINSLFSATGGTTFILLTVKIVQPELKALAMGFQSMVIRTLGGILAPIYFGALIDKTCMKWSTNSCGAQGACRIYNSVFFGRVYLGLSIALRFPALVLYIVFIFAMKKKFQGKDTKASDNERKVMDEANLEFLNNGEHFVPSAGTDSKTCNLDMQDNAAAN

[3] = Rat drug-drug interaction study TDF + AMX0035: urine recovery; assay type: in vivo; settings: male, Sprague-Dawley, rat, in vivo
Procedure: Total urine recovery data for Tenofovir, TDF, and PB was calculated for the 24 hour collection period on Days 1 and 5. […] The reported urine recovery data included amount recovered (ng) and percent recovered (%) for […]. Individual and mean Tenofovir, TDF, and PB urine recovery data were presented with SD, reported to three significant figures, and CV %, reported to one decimal place.

[4] = rat, in vivo
MATE1 = molecular target: T3, MATE1 (Homo sapiens, UniProt Q96FL8); test: MATE1 inhibition, metformin uptake in transfected HEK cells; settings: no inhibitor
T3 sequence (Q96FL8 1-570): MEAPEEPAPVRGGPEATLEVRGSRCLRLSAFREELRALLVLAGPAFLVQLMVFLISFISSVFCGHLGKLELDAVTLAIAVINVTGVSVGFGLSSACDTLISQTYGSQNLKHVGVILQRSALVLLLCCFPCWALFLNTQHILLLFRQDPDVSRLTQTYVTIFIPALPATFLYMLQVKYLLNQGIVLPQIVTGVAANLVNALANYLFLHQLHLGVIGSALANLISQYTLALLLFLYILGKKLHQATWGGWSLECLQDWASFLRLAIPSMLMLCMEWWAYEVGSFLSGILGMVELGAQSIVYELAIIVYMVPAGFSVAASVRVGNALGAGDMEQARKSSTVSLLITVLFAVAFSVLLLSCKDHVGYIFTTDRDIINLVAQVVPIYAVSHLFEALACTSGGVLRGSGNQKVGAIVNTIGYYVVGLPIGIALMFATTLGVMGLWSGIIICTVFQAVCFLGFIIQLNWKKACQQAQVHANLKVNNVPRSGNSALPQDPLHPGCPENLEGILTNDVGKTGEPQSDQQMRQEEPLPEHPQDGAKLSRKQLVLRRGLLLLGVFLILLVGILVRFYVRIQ

MATE2K = MATE2K (Homo sapiens, UniProt Q86VL8); test: MATE2K inhibition, metformin uptake in transfected HEK cells; settings: no inhibitor
MATE2K, sequence (Q86VL8 1-566 isoform Q86VL8-3): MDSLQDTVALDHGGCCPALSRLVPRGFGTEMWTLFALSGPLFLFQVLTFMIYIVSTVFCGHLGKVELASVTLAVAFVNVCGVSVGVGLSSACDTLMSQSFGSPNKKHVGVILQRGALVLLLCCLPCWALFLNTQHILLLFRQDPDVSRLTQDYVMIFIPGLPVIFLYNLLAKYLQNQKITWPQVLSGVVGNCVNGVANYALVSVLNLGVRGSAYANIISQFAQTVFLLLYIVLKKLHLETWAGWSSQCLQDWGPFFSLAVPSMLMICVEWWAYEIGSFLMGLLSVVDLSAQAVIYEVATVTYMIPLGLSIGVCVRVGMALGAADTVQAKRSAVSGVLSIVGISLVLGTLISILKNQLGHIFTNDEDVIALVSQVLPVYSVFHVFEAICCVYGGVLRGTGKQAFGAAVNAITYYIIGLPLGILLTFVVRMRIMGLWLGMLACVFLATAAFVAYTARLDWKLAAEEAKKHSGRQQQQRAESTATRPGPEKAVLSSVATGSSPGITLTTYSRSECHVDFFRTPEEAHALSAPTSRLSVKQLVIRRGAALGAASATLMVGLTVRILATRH

[5] = Vector Control Cells, replicates

SMILES: C[C@]12CC[C@@H]3c4ccc(OS(=O)(=O)O)cc4CC[C@H]3[C@@H]1CCC2=O [3H-estrone-3-sulfate]
- Fold uptake over the vector control by OAT3 (OAT3): 25.9 fold

SMILES: CN(C)C(N)=NC(=N)N [14C-metformin]
- Fold uptake over the vector control by OCT2 (OCT2 [1]): 43.7 fold

SMILES: C[n+]1ccc(-c2ccccc2)cc1 [MPP+, 1-methyl-4-phenylpyridinium]
- Net Influx Rate of 5 μM MPP+ (OCT2 [2]; OCT2): 847 pmol/mg protein/minute
- Influx rate ratio (OCT2 over vector control) (OCT2 [2]): 48.9
- Influx Rate of 5 μM MPP+ (2 min) (OCT2 [2]; OCT2-HEK Cells, Average): 864 pmol/mg protein/minute
- Influx Rate of 5 μM MPP+ (2 min) (OCT2 [2]; OCT2-HEK Cells, replicates): 896 pmol/mg protein/minute and 833 pmol/mg protein/minute
- Influx Rate Ratio of MPP+ (OCT2 [2]; OCT2 over vector control): 48.9
- Influx Rate of 5 μM MPP+ (2 min) (OCT2 [2]; Vector Control Cells, Average): 17.7 pmol/mg protein/minute
- Influx Rate of 5 μM MPP+ (2 min) (OCT2 [2]; [5]): 19.0 pmol/mg protein/minute and 16.3 pmol/mg protein/minute

SMILES: CCC1(c2ccccc2)C(=O)NC(=O)NC1=O [Phenobarbital, phenobarbital]
- % induction relative to positive control (CYP2B6 mRNA; donor 1): 100%
- CYP2B6 mRNA fold-increase, mean (CYP2B6 mRNA; donor 1): 21.8 fold
- % induction relative to positive control (CYP2B6 mRNA; donor 2): 100%
- CYP2B6 mRNA fold-increase, mean (CYP2B6 mRNA; donor 2): 39.6 fold
- % induction relative to positive control (CYP2B6 mRNA; donor 3): 100%
- CYP2B6 mRNA fold-increase, mean (CYP2B6 mRNA; donor 3): 7.36 fold
- % MTS absorbance relative to vehicle control (human hepatocytes; donor 1): 97.7%
- Formazan absorbance, mean (n=6) (human hepatocytes; donor 1): 0.417
- % MTS absorbance relative to vehicle control (human hepatocytes; donor 2): 98.8%
- Formazan absorbance, mean (n=6) (human hepatocytes; donor 2): 0.504
- % MTS absorbance relative to vehicle control (human hepatocytes; donor 3): 108%
- Formazan absorbance, mean (n=6) (human hepatocytes; donor 3): 0.320

SMILES: CO[C@H]1/C=C/O[C@@]2(C)Oc3c(C)c([O-])c4c(O)c(cc(O)c4c3C2=O)NC(=O)/C(C)=C\C=C\[C@H](C)[C@H](O)[C@@H](C)[C@@H](O)[C@@H](C)[C@H](OC(C)=O)[C@@H]1C.[Na+] [RSV, rifamycin SV]
- Influx Rate of […] Atorvastatin (5 min) (OATP1B1; 10 μM RSV, OATP1B1-HEK Cells, Average): 0.702 pmol/mg protein/minute
- Influx Rate of […] Atorvastatin (5 min) (OATP1B1; 10 μM RSV, OATP1B1-HEK Cells, replicates): 0.724 pmol/mg protein/minute and 0.681 pmol/mg protein/minute
- Influx Rate of […] Atorvastatin (5 min) (OATP1B1; 10 μM RSV, Vector Control Cells, Average): 0.518 pmol/mg protein/minute
- Influx Rate of […] Atorvastatin (5 min) (OATP1B1; 10 μM RSV, Vector Control Cells, replicates): 0.496 pmol/mg protein/minute and 0.541 pmol/mg protein/minute
- Net Influx Rate of […] Atorvastatin (OATP1B1; OATP1B1, 10 μM RSV): 0.184 pmol/mg protein/minute
- Percentage Inhibition (OATP1B1; OATP1B1, 10 μM RSV): 96.7%
- % inhibition of atorvastatin uptake (OATP1B1; known inhibitor): 96.7%
- Influx Rate of […] Atorvastatin (5 min) (OATP1B3; 10 μM RSV, Average): 0.573 pmol/mg protein/minute
- Influx Rate of […] Atorvastatin (5 min) (OATP1B3; 10 μM RSV, replicates): 0.576 pmol/mg protein/minute and 0.571 pmol/mg protein/minute
- Net Influx Rate of […] Atorvastatin (OATP1B3; OATP1B3, 10 μM RSV): 0.0551 pmol/mg protein/minute
- Percentage Inhibition (OATP1B3; OATP1B3, 10 μM RSV): 98.1%
- % inhibition of atorvastatin uptake (OATP1B3; known inhibitor): 98.1%

SMILES: CC(C)OC(=O)OCOP(=O)(CO[C@H](C)Cn1cnc2c(N)ncnc21)OCOC(=O)OC(C)C [TDF, Tenofovir Disoproxil Fumarate]
- Urine concentrations [3]: Urine concentrations for PB analysis in all animals on Day 1, for TUDCA analysis in all animals on Days 1 and 5, and for TDF analysis in two animals on Day 1 and one animal on Day 5 were BLQ (<20 mg/mL) so no recovery data was calculated.
- Prodrug in plasma [4]: No prodrug (TDF) was detected in plasma

SMILES: CN(C)C(=N)N=C(N)N [metformin]
- Net Influx Rate of 50 μM Metformin (MATE1; MATE1): 572 pmol/mg protein/minute
- Influx rate ratio (MATE1 over vector control) (MATE1): 43.4
- Influx Rate of 50 μM Metformin (10 min) (MATE1; MATE1-HEK Cells, Average): 586 pmol/mg protein/minute
- Influx Rate of 50 μM Metformin (10 min) (MATE1; MATE1-HEK Cells, replicates): 515 pmol/mg protein/minute and 656 pmol/mg protein/minute
- Influx Rate Ratio of metformin (MATE1; MATE1 over vector control): 43.4
- Influx Rate of 50 μM Metformin (10 min) (MATE1; Vector Control Cells, Average): 13.5 pmol/mg protein/minute
- Influx Rate of 50 μM Metformin (10 min) (MATE1; [5]): 15.6 pmol/mg protein/minute and 11.3 pmol/mg protein/minute
- Net Influx Rate of 50 μM Metformin (MATE2K; MATE2K): 36.1 pmol/mg protein/minute
- Influx rate ratio (MATE2K over vector control) (MATE2K): 2.70
- Influx Rate of 50 μM Metformin (10 min) (MATE2K; MATE2K HEK Cells, Average): 57.4 pmol/mg protein/minute
- Influx Rate of 50 μM Metformin (10 min) (MATE2K; MATE2K HEK Cells, replicates): 54.5 pmol/mg protein/minute and 60.2 pmol/mg protein/minute
- Influx Rate Ratio of metformin (MATE2K; MATE2K over vector control): 2.70
- Influx Rate of 50 μM Metformin (10 min) (MATE2K; Vector Control Cells, Average): 21.3 pmol/mg protein/minute
- Influx Rate of 50 μM Metformin (10 min) (MATE2K; [5]): 19.6 pmol/mg protein/minute and 22.8 pmol/mg protein/minute
